# Experimental data: patent US6406706B1, “Use of α- and β-santalols major constituents of sandal wood oil, in the treatment of warts, skin blemishes and other viral-induced tumors” (Haque, Inc., priority 1996, dated 2002)
# System: warts
# Settings: human, in vivo
# Description: In accordance with the method according to this invention, regular use of the α- and β-santalols is meant to mean application of the α- and β-santalols at least once a day to the body surface containing the viral-induced tumors (i.e., warts and Molluscom contagiosum tumors). A further embodiment of the method of this invention comprises washing the affected area of the body with the soap, rinsing the area, placing a small amount of the α- and β-santalols on the tumor to be treated and then gently rubbing to facilitate penetration. […] The subject was advised to rub 1 drop of the santalol mixture after washing their hand with regular soap and water. The subject was to use a loofah sponge to soften the surface of the warts prior to the application of the santalol mixture. […] A subject had three warts on their right and left index fingers for over five years. […] The subject was advised to wash the warts with soap and water using a loofah sponge to soften the surface of the warts, prior to applying one drop of the santalol mixture on the warts and rubbing gently. The treatment was to occur once a day. […] The subject was asked to wash the warts on their face with soap and water and then apply the santalols with a cotton swab. […] After the resolution of the facial warts, the subject's non-facial warts were treated with the santalols.
substance,measurement,value
α- and β-santalol [santalol mixture],"local side effects (redness, irritation or pain)",no evidence of any local side effects
same,"local skin irritation (redness, pain)",no evidence of any local skin irritation
same,"skin irritation, burning or redness at sites of application",no evidence
same,tolerability of treatment,well tolerated
